# Key:
# Format in all cases: in vivo
# [1] = tested on: corn (Zea mays); assay: Test A pre-/postemergence plant response
# In short: (§1)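 Greenhouse pots of loam/sand received directed preemergence soil sprays or postemergence sprays (plants 2–10 cm, 1–2 leaf stage), compounds formulated in non-phytotoxic solvent with surfactant. Injury was rated visually versus untreated controls after about ten days on a 0 (no effect) to 100 (complete control) scale.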
# [2] = tested on: giant foxtail (Setaria faberii); assay: Test A pre-/postemergence plant response
# In short: as §1
# [3] = tested on: large crabgrass (Digitaria sanguinalis); assay: Test A pre-/postemergence plant response
# In short: as §1
# [4] = tested on: morningglory (Ipomoea spp.); assay: Test A pre-/postemergence plant response
# In short: as §1
# [5] = tested on: velvetleaf (Abutilon theophrasti); assay: Test A pre-/postemergence plant response
# In short: as §1
# [6] = tested on: wheat (Triticum aestivum); assay: Test A pre-/postemergence plant response
# In short: as §1
# [7] = tested on: galium (catchweed bedstraw, Galium aparine); assay: Test B pre-/postemergence plant response; conditions: Preemergence
# In short: (§2)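 Visual ratings on a 0–100 scale (100 = complete control) were made versus untreated controls 13–15 days after treatment in a greenhouse. Compounds in surfactant-containing non-phytotoxic solvent were applied preemergence to seeds in loam–sand blend or postemergence to 1- to 4-leaf plants (2–18 cm).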
# [8] = tested on: nightshade (eastern black nightshade, Solanum ptycanthum); assay: Test B pre-/postemergence plant response; conditions: Preemergence
# In short: as §2
# [9] = tested on: sunflower (common oilseed sunflower, Helianthus annuus); assay: Test B pre-/postemergence plant response; conditions: Preemergence
# In short: as §2
# [10] = tested on: canarygrass (Phalaris minor); assay: Test B postemergence plant response
# In short: (§3)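 Visual ratings from 0 (no effect) to 100 (complete control), made against controls 13–15 days after treatment, kept in a greenhouse. Compounds were applied postemergence to potted plants at the 1- to 4-leaf stage (2–18 cm).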
# [11] = tested on: chickweed (Stellaria media); assay: Test B postemergence plant response
# In short: as §3
# [12] = tested on: windgrass (Apera spica-venti); assay: Test B postemergence plant response
# In short: as §3
# [13] = tested on: winter barley (Hordeum vulgare); assay: Test B postemergence plant response
# In short: as §3
# [14] = Postemergence, 125 g ai/ha, 0 to 100 scale where 0 is no effect and 100 is complete control
# [15] = Postemergence, 500 g ai/ha, 0 to 100 scale, 0 = no effect, 100 = complete control, approx. ten days
# [16] = Preemergence, 125 g ai/ha, 0 to 100 scale, 0 = no effect, 100 = complete control
# [17] = Preemergence, 500 g ai/ha, visual injury, 0 to 100 scale (0 no effect, 100 complete control), approx. ten days
# [18] = 31 g ai/ha, scale 0 to 100 (0 no effect, 100 complete control)
# [19] = 62 g ai/ha, scale 0 to 100, 0 no effect, 100 complete control
# [20] = 125 g ai/ha, scale 0 to 100, 0 no effect, 100 complete control
# [21] = 31 g ai/ha, postemergence, scale 0 to 100, 0 is no effect, 100 is complete control
# [22] = 62 g ai/ha, postemergence, 0 is no effect, 100 is complete control, 13 to 15 days
# [23] = Postemergence, 125 g ai/ha, visual rating after 13 to 15 days, scale 0 (no effect) to 100 (complete control)
# [24] = Postemergence, 250 g ai/ha, scale 0 to 100 (0 no effect, 100 complete control)
# [25] = Postemergence, 125 g ai/ha, visual injury, 0 to 100 scale (0 no effect, 100 complete control), approx. ten days
# [26] = Postemergence, 62 g ai/ha, scale 0 (no effect) to 100 (complete control), 13 to 15 days
smiles,measurement,setting,value
CCCCn1c(CCC)ncc(C(=O)C2=C(O)CCCC2=O)c1=O [Compound 75],"Plant response rating, Corn",[1]; [14],0
same,"Plant response rating, Corn",[1]; [15],50
same,"Plant response rating, Corn",[1]; [16],0
same,"Plant response rating, Corn",[1]; [17],0
same,"Plant response rating, Foxtail, Giant",[2]; [14],80
same,"Plant response rating, Foxtail, Giant",[2]; [15],90
same,"Plant response rating, Foxtail, Giant",[2]; [16],50
same,"Plant response rating, Foxtail, Giant",[2]; [17],70
same,"Plant response rating, Crabgrass, Large",[3]; [14],90
same,"Plant response rating, Crabgrass, Large",[3]; [15],90
same,"Plant response rating, Crabgrass, Large",[3]; [16],90
same,"Plant response rating, Crabgrass, Large",[3]; [17],100
same,"Plant response rating, Morningglory",[4]; [14],90
same,"Plant response rating, Morningglory",[4]; [15],100
same,"Plant response rating, Morningglory",[4]; [16],60
same,"Plant response rating, Morningglory",[4]; [17],90
same,"Plant response rating, Velvetleaf",[5]; [14],100
same,"Plant response rating, Velvetleaf",[5]; [15],100
same,"Plant response rating, Velvetleaf",[5]; [16],90
same,"Plant response rating, Velvetleaf",[5]; [17],100
same,"Plant response rating, Wheat",[6]; [14],0
same,"Plant response rating, Wheat",[6]; [15],50
same,"Plant response rating, Wheat",[6]; [16],0
same,"Plant response rating, Wheat",[6]; [17],0
same,"Plant response rating, Galium",[7]; [18],60
same,"Plant response rating, Galium",[7]; [19],85
same,"Plant response rating, Galium",[7]; [20],95
same,Galium plant response rating,"[7]; 250 g ai/ha, 0 to 100 scale",98
same,"Plant response rating, Nightshade",[8]; [18],95
same,"Plant response rating, Nightshade",[8]; [19],98
same,"Plant response rating, Nightshade",[8]; [20],98
same,Nightshade plant response rating,"[8]; 250 g ai/ha, 0 to 100 scale",100
same,"Plant response rating, Sunflower",[9]; [18],30
same,"Plant response rating, Sunflower",[9]; [19],55
same,"Plant response rating, Sunflower",[9]; [20],75
same,Sunflower plant response rating,"[9]; 250 g ai/ha, 0 to 100 scale",85
same,"Plant response rating, Canarygrass",[10]; [21],0
same,Canarygrass plant response rating (0 to 100 scale),[10]; [22],0
same,"Plant response rating, Canarygrass",[10]; [23],0
same,"Plant response rating, Canarygrass",[10]; [24],0
same,"Plant response rating, Chickweed",[11]; [21],85
same,Chickweed plant response rating (0 to 100 scale),[11]; [22],90
same,"Plant response rating, Chickweed",[11]; [23],98
same,"Plant response rating, Chickweed",[11]; [24],100
same,"Plant response rating, Windgrass",[12]; [21],30
same,Windgrass plant response rating (0 to 100 scale),[12]; [22],50
same,"Plant response rating, Windgrass",[12]; [23],70
same,"Plant response rating, Windgrass",[12]; [24],90
same,"Plant response rating, Barley",[13]; [21],0
same,Barley plant response rating (0 to 100 scale),[13]; [22],0
same,"Plant response rating, Barley",[13]; [23],0
same,"Plant response rating, Barley",[13]; [24],0
Cc1ccc(Cl)cc1-n1c(-c2ccccc2)ncc(C(=O)C2=C(O)CCCC2=O)c1=O [Compound 52],Corn plant response rating,[1]; [25],0
same,"Plant response rating, Corn",[1]; [15],70
same,"Plant response rating, Corn",[1]; [16],0
same,"Plant response rating, Corn",[1]; [17],10
same,"Foxtail, Giant plant response rating",[2]; [25],90
same,"Plant response rating, Foxtail, Giant",[2]; [15],100
same,"Plant response rating, Foxtail, Giant",[2]; [16],80
same,"Plant response rating, Foxtail, Giant",[2]; [17],100
same,"Crabgrass, Large plant response rating",[3]; [25],90
same,"Plant response rating, Crabgrass, Large",[3]; [15],100
same,"Plant response rating, Crabgrass, Large",[3]; [16],90
same,"Plant response rating, Crabgrass, Large",[3]; [17],100
same,Morningglory plant response rating,[4]; [25],100
same,"Plant response rating, Morningglory",[4]; [15],100
same,"Plant response rating, Morningglory",[4]; [16],30
same,"Plant response rating, Morningglory",[4]; [17],90
same,Velvetleaf plant response rating,[5]; [25],100
same,"Plant response rating, Velvetleaf",[5]; [15],100
same,"Plant response rating, Velvetleaf",[5]; [16],100
same,"Plant response rating, Velvetleaf",[5]; [17],100
same,Wheat plant response rating,[6]; [25],0
same,"Plant response rating, Wheat",[6]; [15],40
same,"Plant response rating, Wheat",[6]; [16],0
same,"Plant response rating, Wheat",[6]; [17],0
same,"Plant response rating, Galium","[7]; 250 g ai/ha, 0 to 100 scale",95
same,"Plant response rating, Galium",[7]; [18],0
same,"Plant response rating, Galium",[7]; [19],0
same,"Plant response rating, Galium",[7]; [20],70
same,"Plant response rating, Nightshade","[8]; 250 g ai/ha, 0 to 100 scale",100
same,"Plant response rating, Nightshade",[8]; [18],90
same,"Plant response rating, Nightshade",[8]; [19],95
same,"Plant response rating, Nightshade",[8]; [20],98
same,"Plant response rating, Sunflower","[9]; 250 g ai/ha, 0 to 100 scale",75
same,"Plant response rating, Sunflower",[9]; [18],10
same,"Plant response rating, Sunflower",[9]; [19],10
same,"Plant response rating, Sunflower",[9]; [20],70
same,"Plant response rating, Canarygrass",[10]; [21],0
same,"Plant response rating, Canarygrass",[10]; [26],50
same,"Plant response rating, Canarygrass",[10]; [23],65
same,"Plant response rating, Canarygrass",[10]; [24],85
same,"Plant response rating, Chickweed",[11]; [21],95
same,"Plant response rating, Chickweed",[11]; [26],95
same,"Plant response rating, Chickweed",[11]; [23],95
same,"Plant response rating, Chickweed",[11]; [24],98
same,"Plant response rating, Windgrass",[12]; [21],60
same,"Plant response rating, Windgrass",[12]; [26],80
same,"Plant response rating, Windgrass",[12]; [23],90
same,"Plant response rating, Windgrass",[12]; [24],100
same,"Plant response rating, Barley",[13]; [21],0
same,"Plant response rating, Barley",[13]; [26],0
same,"Plant response rating, Barley",[13]; [23],25
same,"Plant response rating, Barley",[13]; [24],25

# — patent publication US8952024B2, “Herbicidal pyrimidone derivatives” (E I du Pont de Nemours and Company, priority 2009, dated 2015)
